In publication PMC7914897, “Cytotoxic Potential of a-Azepano- and 3-Amino-3,4-SeCo-Triterpenoids” (International Journal of Molecular Sciences, 2021):

What was measured:
[1] = tested on: A549/ATCC (NSC lung cancer); assay: NCI-60 screen (SRB, 48 h); conditions: Homo sapiens
[2] = tested on: OVCAR-5 (Ovarian cancer); assay: NCI-60 screen (SRB, 48 h)
[3] = tested on: SK-MEL-2 (Melanoma); assay: NCI-60 screen (SRB, 48 h); conditions: Homo sapiens
[4] = tested on: SF-295 (CNS cancer); assay: NCI-60 screen (SRB, 48 h); conditions: Homo sapiens
[5] = tested on: SF-268 (CNS cancer); assay: NCI-60 screen (SRB, 48 h); conditions: Homo sapiens
[6] = tested on: Breast cancer subpanel; assay: NCI-60 screen, subpanel; conditions: Homo sapiens
[7] = tested on: U251 (CNS cancer); assay: NCI-60 screen (SRB, 48 h); conditions: Homo sapiens, U-251
[8] = tested on: SF-539 (CNS cancer); assay: NCI-60 screen (SRB, 48 h); conditions: Homo sapiens, SF-539
[9] = tested on: M14 (Melanoma); assay: NCI-60 screen (SRB, 48 h); conditions: Homo sapiens
[10] = tested on: Ovarian Cancer subpanel; assay: NCI-60 screen, subpanel; conditions: Homo sapiens
[11] = tested on: NCI-H23 (NSC lung cancer); assay: NCI-60 screen (SRB, 48 h); conditions: Homo sapiens, NCI-H23
[12] = tested on: SK-MEL-28 (Melanoma); assay: NCI-60 screen (SRB, 48 h); conditions: Homo sapiens, SK-MEL-28
[13] = tested on: NCI-H522 (NSC lung cancer); assay: NCI-60 screen (SRB, 48 h); conditions: Homo sapiens
[14] = tested on: NSC lung cancer subpanel; assay: NCI-60 screen, subpanel; conditions: Homo sapiens
[15] = tested on: RXF 393 (Renal cancer); assay: NCI-60 screen (SRB, 48 h); conditions: Homo sapiens
[16] = tested on: NCI-H460 (NSC lung cancer); assay: NCI-60 screen (SRB, 48 h); conditions: Homo sapiens, NCI-H460
[17] = tested on: LOX IMVI (Melanoma); assay: NCI-60 screen (SRB, 48 h); assay type: cell-based; conditions: Homo sapiens
[18] = tested on: CNS cancer subpanel; assay: NCI-60 screen, subpanel; conditions: Homo sapiens
[19] = tested on: CAKI-1 (Renal cancer); assay: NCI-60 screen (SRB, 48 h); conditions: Homo sapiens
[20] = tested on: HT29 (colorectal carcinoma); assay: SRB cytotoxicity assay, 72 h; assay type: cell-based, human; conditions: Homo sapiens, HT-29; HT29, 72 h, cut-off 30 µM; read-out: EC50
In short: (§1)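 Cells seeded, treated 24 h later with serial dilutions (0–30 µM; DMSO ≤0.5%) for 72 h. TCA-fixed, SRB-stained, absorbance read at 570 nm; survival relative to untreated controls gives EC50.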

[21] = tested on: A2780 (ovarian carcinoma); assay: SRB cytotoxicity assay, 72 h; assay type: cell-based, human; conditions: Homo sapiens; A2780, 72 h, cut-off 30 µM; read-out: EC50
In short: as §1

[22] = tested on: MCF-7 (breast carcinoma); assay: SRB cytotoxicity assay, 72 h; assay type: cell-based, human; conditions: Homo sapiens, MCF7; MCF-7, 72 h, cut-off 30 µM; read-out: EC50
In short: as §1

[23] = tested on: A375 (malignant melanoma); assay: SRB cytotoxicity assay, 72 h; assay type: cell-based, human; conditions: Homo sapiens, A-375, 72 h, A375, 72 h, cut-off 30 µM; read-out: EC50
In short: as §1

[24] = tested on: FaDu (hypopharyngeal carcinoma); assay: SRB cytotoxicity assay, 72 h; assay type: cell-based, human; conditions: Homo sapiens, cut-off 30 µM, read-out: EC50
In short: as §1

Work on `C=C(C)[C@@H]1CC[C@]2(COS(=O)(=O)c3ccc(C)cc3)CC[C@]3(C)[C@@H](CC[C@@H]4[C@@]5(C)CCCNC(C)(C)[C@@H]5CC[C@]43C)[C@@H]12` [Compound 12] yielded a GI50 ([1]; A549) of 1870 nM, an IC (TGI) ([1]; A549, 48 h, read-out: TGI) of 3.5 µM and a GI50 ([2]; Homo sapiens, OVCAR-5) of 1640 nM. The IC (TGI) ([2]; Homo sapiens, OVCAR-5, 48 h, read-out: TGI) was 3.13 µM, the “Growth % of the Most Sensitive Cell Lines” value ([2]; OVCAR-5, 1 dose 10 µM) was −87.72% and the GI50 ([3]; SK-MEL-2) was 1840 nM. It also gave an IC (TGI) ([3]; SK-MEL-2, 48 h, read-out: TGI) of 3.32 µM, a GI50 ([4]; SF-295) of 1600 nM and an IC (TGI) ([4]; SF-295, 48 h, read-out: TGI) of 3.01 µM. For the same molecule, the GI50 ([5]; SF-268) was 1880 nM, the IC (TGI) ([5]; SF-268, 48 h, read-out: TGI) was 3.79 µM and the IC (TGI) ([6]; 48 h, read-out: TGI MG_MID) was 3.5 µM. For the same molecule, the GI50 ([6]; read-out: GI50 MG_MID) was 1710 nM, the GI50 [7] was 1750 nM and the GI50 [8] was 1700 nM. It also gave a GI50 ([9]; M14) of 1830 nM, an IC (TGI) ([9]; M14, 48 h, read-out: TGI) of 3.3 µM and an IC (TGI) ([10]; 48 h, read-out: TGI MG_MID) of 3.37 µM. The GI50 ([10]; read-out: GI50 MG_MID) was 1790 nM, the CC50 ([10]; read-out: LC50 MG_MID) was 5.82 µM and the GI50 [11] was 1750 nM. For the same molecule, the GI50 [12] was 2150 nM, the GI50 ([13]; NCI-H522) was 1700 nM and the IC (TGI) ([13]; NCI-H522, 48 h, read-out: TGI) was 3.23 µM. It also gave an IC (TGI) ([14]; 48 h, read-out: TGI MG_MID) of 3.25 µM, a GI50 ([14]; read-out: GI50 MG_MID) of 1710 nM and a GI50 ([15]; RXF 393) of 1620 nM. The IC (TGI) ([15]; RXF 393, 48 h, read-out: TGI) was 3.13 µM, the GI50 [16] was 1680 nM and the activity at 10 µM ([17]; 48 h, 1 dose 10 µM, read-out: Growth % of the Most Sensitive Cell Lines) was -86.5%. It also gave a GI50 ([17]; read-out: GI50) of 1720 nM, an IC (TGI) ([18]; 48 h, read-out: TGI MG_MID) of 3.49 µM and a GI50 ([18]; read-out: GI50 MG_MID) of 1790 nM. For the same molecule, the GI50 ([19]; CAKI-1) was 1740 nM, the IC (TGI) ([19]; CAKI-1, 48 h, read-out: TGI) was 3.15 µM and the CC50 ([19]; CAKI-1, read-out: LC50) was 5.71 µM. It also gave an EC50 [20] of 1960 ± 300 nM, an EC50 [21] of 1680 ± 100 nM and an EC50 [22] of 1630 ± 100 nM. The EC50 [23] was 2030 ± 100 nM and the EC50 [24] was 1590 ± 100 nM.
